Laboratory results from PubChem BioAssay (NCI).
Several values for one entry are separate records, joined by “and”; a condition that tells them apart may be missing. Equal entries are not always repeated.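 1) Cells in 96-well plates. 2) Compound, 48 h, 5 concentrations. 3) Linear interpolation between surrounding doses. 4) Unreached endpoint = highest concentration. At the GI50, growth is halved. At the TGI there is no net growth.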

test system: SK-MEL-28 melanoma; experiment: inhibition of tumour cell growth, NCI panel, 48 h

| SMILES | GI50 | TGI |
| --- | --- | --- |
| COc1cc2c(c(OC)c1O)C(=O)C(OC)C(c1ccc(O)c(O)c1)O2 (configuration not stated) | 10.1 µM | > 100 µM |
| Cn1ccnc1C(=O)/C=C/c1ccc(CC(=O)Nc2ccc(Br)cc2)cc1 | 3.32 µM | 7.63 µM |
| CCOC(=O)Nc1nc2ccc(OCC)cc2s1 | > 60.7 µM | > 100 µM |
| NS(=O)(=O)c1ccccc1C(=O)N/N=C(\c1nc2ccc([N+](=O)[O-])cc2[nH]c1=O)C(O)c1ccc([N+](=O)[O-])cc1 (configuration not stated) | – | > 100 µM |
| COc1ccc2c(c1)C(=O)/C(=C/c1ccc(OCC(=O)Nc3nccs3)cc1)O2 | 12.7 µM | 26.3 µM |
| CC(C)c1ccc(C(C)C(=O)N(CC2=C(C(C)c3ccccn3)c3ccccc3C2)C(C)C)cc1 (configuration not stated) | 10.8 µM | 66.2 µM |
| Cc1nc2c(nc1C)C(=O)c1ccccc1C2=O | – | 4.76 µM |
| Nc1ccc(C(=O)N/C(=C\c2ccc3c(c2)OCO3)c2nc3[nH]c(=S)[nH]c(=O)c3[nH]2)cc1 | – | > 100 µM |
| O[C@H]1[C@H]2c3cc4c(cc3CN3CCC(=C[C@@H]1O)[C@H]23)OCO4 | – | 22.6 µM |
| O=C(Nc1ccc(I)cc1)c1cc([N+](=O)[O-])ccc1O | 9.53 µM | 72.3 µM |
| Cc1cc(=O)n2[nH]c(-c3ccc(C(C)(C)C)cc3)cc2n1 | 20.6 µM | > 100 µM |
| CNC(=O)c1ccccc1Nc1nc(Nc2ccc(N3CCOCC3)cc2OC)ncc1Cl | 1.35 µM | > 37.1 µM |
| O=C(N/C(=C\c1cc(Cl)ccc1Cl)c1nc2[nH]c(=S)[nH]c(=O)c2[nH]1)c1ccccc1 | – | > 83.5 µM |
| O=C(CN1CCN(c2cc3c(cc2F)c(=O)c(C(=O)N/N=C/c2ccccc2O)cn3C2CC2)CC1)N/N=C\c1ccccc1O | 0.657 µM | > 100 µM |
| C=C(CNCCO)[C@@H]1CC[C@]2(CO)CC[C@]3(C)[C@H](CC[C@@H]4[C@@]5(C)CCC(N)C(C)(C)[C@@H]5CC[C@]43C)[C@@H]12 (some centres not stated) | 1.96 µM | 3.6 µM |
| Nc1cc2nc3ccccc3sc-2cc1=O | 2.12 µM | 4.04 µM |
| COc1cc2nc(-c3ccc(C(F)(F)F)cc3)cc(OCCCN3CCC(O)CC3)c2cc1OC | 2.38 µM | 11.5 µM |
| CC(=O)C(CN(C(C)C)C(C)C)C(c1ccccc1)c1c(O)c2ccccc2oc1=O (configuration not stated) | – | > 100 µM |
| O=C1NNC(=O)c2ccccc2SSc2ccccc2C(=O)NNC(=O)c2ccccc2SSc2ccccc21 | 23.1 µM | 50 µM and > 100 µM |
| NC(CCc1nc(-c2ccc(Cl)cc2)cs1)C(=O)O (configuration not stated) | – | > 100 µM |
| COc1cc(C(=O)/C=C/c2sc(Cl)nc2Cl)cc(OC)c1OC | 1.78 µM | 3.27 µM |
| COc1cc2nc(C)nc(N[C@H](C)c3cc(N)cc(C(F)(F)F)c3)c2cc1O[C@H]1CCOC1 | 16 µM | 29.6 µM |
| CCOC(=O)C1=C(C)CC2C(=O)OC(=O)C2C1(C)C (configuration not stated) | – | > 100 µM |
| O=C1c2ccccc2C(=O)c2sc(Nc3cccc(Cl)c3)nc21 | – | 3.34 µM |
| Fc1ccc(Nc2ncnc3ccc(-c4cnc5[nH]ccc5c4)cc23)cc1Cl | 4.13 µM | > 36.2 µM |
| CN(C)CCCNC1=C(Cl)C(=O)c2ccccc2C1=O | 1.88 µM | 3.41 µM |
| O=C(Nc1ccc(F)cc1F)c1cc(I)ccc1O | 1.93 µM | 6.84 µM |
| CCOc1ccccc1-n1c(CN2CCN(C(=O)COc3ccc(CNCCCCCCN4C5CCCC4CC(OC(=O)Nc4cc(C)ccc4OC)C5)cc3)CC2)nc2ccccc2c1=O (configuration not stated) | 1.81 µM | 3.25 µM |

test system: SK-MEL-5 melanoma; experiment: inhibition of tumour cell growth, NCI panel, 48 h

| SMILES | GI50 | TGI |
| --- | --- | --- |
| COc1cc2c(c(OC)c1O)C(=O)C(OC)C(c1ccc(O)c(O)c1)O2 (configuration not stated) | 0.757 µM | 3.26 µM |
| Cn1ccnc1C(=O)/C=C/c1ccc(CC(=O)Nc2ccc(Br)cc2)cc1 | 3.58 µM | 8.25 µM |
| CCOC(=O)Nc1nc2ccc(OCC)cc2s1 | 5.56 µM | > 100 µM |
| NS(=O)(=O)c1ccccc1C(=O)N/N=C(\c1nc2ccc([N+](=O)[O-])cc2[nH]c1=O)C(O)c1ccc([N+](=O)[O-])cc1 (configuration not stated) | – | > 100 µM |
| COc1ccc2c(c1)C(=O)/C(=C/c1ccc(OCC(=O)Nc3nccs3)cc1)O2 | 2.93 µM | 16.3 µM |
| CC(C)c1ccc(C(C)C(=O)N(CC2=C(C(C)c3ccccn3)c3ccccc3C2)C(C)C)cc1 (configuration not stated) | 1.97 µM | 4.62 µM |
| Cc1nc2c(nc1C)C(=O)c1ccccc1C2=O | – | 0.518 µM |
| Nc1ccc(C(=O)N/C(=C\c2ccc3c(c2)OCO3)c2nc3[nH]c(=S)[nH]c(=O)c3[nH]2)cc1 | – | > 100 µM |
| O[C@H]1[C@H]2c3cc4c(cc3CN3CCC(=C[C@@H]1O)[C@H]23)OCO4 | – | 6.91 µM |
| O=C(Nc1ccc(I)cc1)c1cc([N+](=O)[O-])ccc1O | 3.63 µM | 18.6 µM |
| Cc1cc(=O)n2[nH]c(-c3ccc(C(C)(C)C)cc3)cc2n1 | 1.82 µM | 12.1 µM |
| CNC(=O)c1ccccc1Nc1nc(Nc2ccc(N3CCOCC3)cc2OC)ncc1Cl | 1.68 µM | > 37.8 µM |
| O=C(N/C(=C\c1cc(Cl)ccc1Cl)c1nc2[nH]c(=S)[nH]c(=O)c2[nH]1)c1ccccc1 | – | > 100 µM |
| O=C(CN1CCN(c2cc3c(cc2F)c(=O)c(C(=O)N/N=C/c2ccccc2O)cn3C2CC2)CC1)N/N=C\c1ccccc1O | 0.876 µM | 2.95 µM |
| C=C(CNCCO)[C@@H]1CC[C@]2(CO)CC[C@]3(C)[C@H](CC[C@@H]4[C@@]5(C)CCC(N)C(C)(C)[C@@H]5CC[C@]43C)[C@@H]12 (some centres not stated) | 1.73 µM | 3.18 µM |
| Nc1cc2nc3ccccc3sc-2cc1=O | 1.55 µM | 2.93 µM |
| COc1cc2nc(-c3ccc(C(F)(F)F)cc3)cc(OCCCN3CCC(O)CC3)c2cc1OC | 1.43 µM | 4.72 µM |
| CC(=O)C(CN(C(C)C)C(C)C)C(c1ccccc1)c1c(O)c2ccccc2oc1=O (configuration not stated) | – | > 100 µM |
| O=C1NNC(=O)c2ccccc2SSc2ccccc2C(=O)NNC(=O)c2ccccc2SSc2ccccc21 | 42.1 µM | 50 µM and > 100 µM |
| NC(CCc1nc(-c2ccc(Cl)cc2)cs1)C(=O)O (configuration not stated) | – | > 100 µM |
| COc1cc(C(=O)/C=C/c2sc(Cl)nc2Cl)cc(OC)c1OC | 1.95 µM | 3.96 µM |
| COc1cc2nc(C)nc(N[C@H](C)c3cc(N)cc(C(F)(F)F)c3)c2cc1O[C@H]1CCOC1 | 13.4 µM | 26.5 µM |
| CCOC(=O)C1=C(C)CC2C(=O)OC(=O)C2C1(C)C (configuration not stated) | – | > 100 µM |
| O=C1c2ccccc2C(=O)c2sc(Nc3cccc(Cl)c3)nc21 | – | 2.99 µM |
| Fc1ccc(Nc2ncnc3ccc(-c4cnc5[nH]ccc5c4)cc23)cc1Cl | 6.88 µM | 40.3 µM |
| CN(C)CCCNC1=C(Cl)C(=O)c2ccccc2C1=O | 1.6 µM | 2.96 µM |
| O=C(Nc1ccc(F)cc1F)c1cc(I)ccc1O | 1.7 µM | 3.35 µM |
| CCOc1ccccc1-n1c(CN2CCN(C(=O)COc3ccc(CNCCCCCCN4C5CCCC4CC(OC(=O)Nc4cc(C)ccc4OC)C5)cc3)CC2)nc2ccccc2c1=O (configuration not stated) | 1.52 µM | 2.92 µM |

test system: SN12C renal; experiment: inhibition of tumour cell growth, NCI panel, 48 h

| SMILES | GI50 | TGI |
| --- | --- | --- |
| COc1cc2c(c(OC)c1O)C(=O)C(OC)C(c1ccc(O)c(O)c1)O2 (configuration not stated) | 0.426 µM | > 100 µM |
| Cn1ccnc1C(=O)/C=C/c1ccc(CC(=O)Nc2ccc(Br)cc2)cc1 | 3.88 µM | 11.1 µM |
| CCOC(=O)Nc1nc2ccc(OCC)cc2s1 | > 93.4 µM | > 100 µM |
| NS(=O)(=O)c1ccccc1C(=O)N/N=C(\c1nc2ccc([N+](=O)[O-])cc2[nH]c1=O)C(O)c1ccc([N+](=O)[O-])cc1 (configuration not stated) | – | > 100 µM |
| COc1ccc2c(c1)C(=O)/C(=C/c1ccc(OCC(=O)Nc3nccs3)cc1)O2 | 2.51 µM | 18.9 µM |
| CC(C)c1ccc(C(C)C(=O)N(CC2=C(C(C)c3ccccn3)c3ccccc3C2)C(C)C)cc1 (configuration not stated) | 1.88 µM | 3.51 µM |
| Cc1nc2c(nc1C)C(=O)c1ccccc1C2=O | – | 6.4 µM |
| Nc1ccc(C(=O)N/C(=C\c2ccc3c(c2)OCO3)c2nc3[nH]c(=S)[nH]c(=O)c3[nH]2)cc1 | – | > 100 µM |
| O[C@H]1[C@H]2c3cc4c(cc3CN3CCC(=C[C@@H]1O)[C@H]23)OCO4 | – | 9.5 µM |
| O=C(Nc1ccc(I)cc1)c1cc([N+](=O)[O-])ccc1O | 4.61 µM | 75.4 µM |
| Cc1cc(=O)n2[nH]c(-c3ccc(C(C)(C)C)cc3)cc2n1 | 12.3 µM | > 100 µM |
| CNC(=O)c1ccccc1Nc1nc(Nc2ccc(N3CCOCC3)cc2OC)ncc1Cl | 1.77 µM | > 100 µM |
| O=C(N/C(=C\c1cc(Cl)ccc1Cl)c1nc2[nH]c(=S)[nH]c(=O)c2[nH]1)c1ccccc1 | – | > 66.6 µM |
| O=C(CN1CCN(c2cc3c(cc2F)c(=O)c(C(=O)N/N=C/c2ccccc2O)cn3C2CC2)CC1)N/N=C\c1ccccc1O | 0.694 µM | > 100 µM |
